Results: patent publication US20230111910A1, “PD-1/PD-L1 INHIBITOR, PREPARATION METHOD THEREFOR, AND USE THEREOF” (SHANGHAI SYNERGY PHARMACEUTICAL SCIENCES CO., LTD., priority 2020, published 2023)
Structures can show the parent of a compound that is named as a salt. Where two headings read alike, the source gives them in different places.

Tests used:
Assay type in all cases: in vivo
[1] = Pharmacokinetic experiment in rats, LC/MS/MS; settings: male, rat, whole blood, SD rats; for AUC: read-out: Area under the curve (AUC, ng/mL.h); for half-life: read-out: Half life (T1/2, h) (converted); for bioavailability: p.o. 10 mg/kg vs i.v. 2 mg/kg, read-out: Bioavailability (F%); for Cmax: read-out: Blood concentration (Cmax, ng/mL)
Description: Taking SD rats as an example, the drug concentrations in the plasma of rats at different times after i.g. and i.v. administration of compounds of Examples 1, 5, 6, 8, 12, 13, 15, 18, 19, 22, 25, 27 and 29, respectively, were determined by the liquid chromatography-tandem mass spectrometry (LS/MS/MS) method, and the relevant pharmacokinetic parameters were calculated to evaluate the pharmacokinetic properties of example compounds of the present invention in rats.
Healthy adult SD rats, SPF grade, male, purchased from Sippe-Bk Lab Animal Co., Ltd., Shanghai, license number SCXK (Shanghai) 2018-0006, animal certificate number: 20180006006321.
A certain amount of compound was weighed, dissolved in 5% dimethyl sulfoxide (DMSO), subjected to vortex and sonication, added with 0.5% sodium carboxymethyl cellulose (CMC-Na), and sonicated, to prepare a homogeneous solution.
Before administration and 5 min, 15 min, 0.5 h, 1 h, 2 h, 4 h, 6 h, 8 h and 24 h after administration, orbital blood was collected, 0.2 milliliters (mL) of blood being collected each time, and placed in an anticoagulant tube, mixed well, and stored in a −20° C. refrigerator for later use.
The content of the compound in rat whole blood was determined by liquid chromatography-tandem mass spectrometry (LS/MS/MS).
The pharmacokinetic parameters of the compounds after administration were calculated using the non-compartmental model of WinNonLin5.3 software.

[2] = Acute toxicity test in mice, single dose, 14 days observation; settings: both sexes, mouse, in vivo; ICR mice, single administration; read-out: median lethal dose (LD50)
Description: (§1) This experiment aims to test the toxic effects of the compounds in mice.
(§2) ICR mice, SPF grade, 6-8 weeks old, half male and half […], purchased from Sippe-Bk Lab Animal Co., Ltd., Shanghai, license number SCXK (Shanghai) 2018-0006, animal certificate number: 20180006010983.
(§3) ICR mice were administered different doses of compounds at a single time, and were continuously observed for 14 days. The animal death, poisoning reaction, body weight change, diet, appearance, behavior, etc. were recorded. At the end point, the animals were dissected, and the organs were taken for histopathological examination.

ICR mice = test: as above; settings: within 14 days from administration
Description: as §1, §2, §3

Work on `Cc1c(NC(=O)c2nc(CNCCO)cn2C)cccc1-c1cccc(NC(=O)c2ccc(CNCCO)cn2)c1Cl` [Example 1, N-(2-chloro-3′-(4-(((2-hydroxyethyl)amino)methyl)-1-methyl-1H-imidazole-2-carboxamido)-2′-methyl-[1,1′-biphenyl]-3-yl)-5-(((2-hydroxyethyl)amino)methyl)picolinamide] yielded an AUC ([1]; iv, i.v., 2 mg/kg) of 596 ng·h/mL, a half-life ([1]; iv, i.v., 2 mg/kg) of 2.05 h and a bioavailability ([1]; po) of 56%. The AUC ([1]; po, p.o. (i.g.), 10 mg/kg) was 1670 ng·h/mL and the Cmax ([1]; po, p.o. (i.g.), 10 mg/kg) was 415 ng/mL.

With `Cc1c(NC(=O)c2nc(CNCCO)cs2)cccc1-c1cccc(NC(=O)c2ccc(CNCCO)cn2)c1Cl` [Example 2] the LD50 at 14 days [2] was > 1000 mg/kg and the “body weight and behavior compared with control group” value (ICR mice) was “no abnormal body weight or behavior”.

Work on `Cc1c(NC(=O)c2nc3c(s2)CN(C)CC3)cncc1-c1cccc(NC(=O)c2nc3c(n2C)CCN(C)C3)c1C` [Example 5, N-(5-(3-(1,5-dimethyl-4,5,6,7-tetrahydro-1H-imidazo[4,5-c]pyridine-2-carboxamido)-2-methylphenyl)-4-methylpyridin-3-yl)-5-methyl-4,5,6,7-tetrahydrothiazolo[5,4-c]pyridine-2-carboxamide] yielded an AUC ([1]; iv, i.v., 2 mg/kg) of 612 ng·h/mL, a half-life ([1]; iv, i.v., 2 mg/kg) of 2.5 h and a bioavailability ([1]; po) of 68%. For the same compound, the AUC ([1]; po, p.o. (i.g.), 10 mg/kg) was 2080 ng·h/mL and the Cmax ([1]; po, p.o. (i.g.), 10 mg/kg) was 432 ng/mL.

In the case of `Cc1c(NC(=O)c2nc3c(s2)CN(C)CC3)cncc1-c1cccc(NC(=O)c2nc3c(n2C)CCN(CC(C)O)C3)c1C` (stereo not drawn) [Example 6, N-(5-(3-(5-(2-hydroxypropyl)-1-methyl-4,5,6,7-tetrahydro-1H-imidazo[4,5-c]pyridine-2-carboxamido)-2-methylphenyl)-4-methylpyridin-3-yl)-5-methyl-4,5,6,7-tetrahydrothiazolo[5,4-c]pyridine-2-carboxamide], the AUC ([1]; iv, i.v., 2 mg/kg) is reported as 676 ng·h/mL, the half-life ([1]; iv, i.v., 2 mg/kg) is reported as 1.36 h and the bioavailability ([1]; po) is reported as 62%. It also gave an AUC ([1]; po, p.o. (i.g.), 10 mg/kg) of 2100 ng·h/mL and a Cmax ([1]; po, p.o. (i.g.), 10 mg/kg) of 389 ng/mL.

Work on `Cc1c(NC(=O)c2nc3c(s2)CN(C)CC3)cncc1-c1cccc(-c2nc3cc(CN4CC[C@@H](C(=O)O)C4)cc(Cl)c3o2)c1C` [Example 8, (R)-1-((7-chloro-2-(2-methyl-3-(4-methyl-5-(5-methyl-4,5,6,7-tetrahydrothiazolo[5,4-c]pyridine-2-carboxamido)pyridin-3-yl)phenyl)benzo[d]oxazol-5-yl)methyl)pyrrolidine-3-carboxylic acid] yielded an AUC ([1]; iv, i.v., 2 mg/kg) of 601 ng·h/mL, a half-life ([1]; iv, i.v., 2 mg/kg) of 1.56 h and a bioavailability ([1]; po) of 55%. The AUC ([1]; po, p.o. (i.g.), 10 mg/kg) was 1650 ng·h/mL and the Cmax ([1]; po, p.o. (i.g.), 10 mg/kg) was 402 ng/mL.

Work on `Cc1c(NC(=O)c2nc3c(n2C)CCN(C[C@H](C)O)C3)cccc1-c1cncc(-c2nc3cc(CN4CC[C@@H](C(=O)O)C4)cc(Cl)c3o2)c1C` [Example 12] yielded an AUC ([1]; iv, i.v., 2 mg/kg) of 586 ng·h/mL, a bioavailability ([1]; po) of 60% and an AUC ([1]; po, p.o. (i.g.), 10 mg/kg) of 1760 ng·h/mL. For the same compound, the Cmax ([1]; po, p.o. (i.g.), 10 mg/kg) was 442 ng/mL.

For `Cc1c(NC(=O)c2nc3c(n2C)CCN(C)C3)cccc1-c1cncc(-c2nc3cc(CN4CC[C@@H](C(=O)O)C4)cc(Cl)c3o2)c1C` [Example 13], the LD50 at 14 days [2] was > 1000 mg/kg, the “body weight and behavior compared with control group” value (ICR mice) was “no abnormal body weight or behavior” and the AUC ([1]; iv, i.v., 2 mg/kg) was 630 ng·h/mL. For the same compound, the half-life ([1]; iv, i.v., 2 mg/kg) was 1.43 h, the bioavailability ([1]; po) was 54% and the AUC ([1]; po, p.o. (i.g.), 10 mg/kg) was 1700 ng·h/mL. The Cmax ([1]; po, p.o. (i.g.), 10 mg/kg) was 431 ng/mL.

Work on `Cc1c(NC(=O)c2nc3c(s2)CNCC3)cccc1-c1cccc(-c2nc3cc(CN4CC[C@@H](C(=O)O)C4)cnc3o2)c1C` [Example 18, (R)-1-((2-(2,2′-dimethyl-3′-(4,5,6,7-tetrahydrothiazolo[5,4-c]pyridine-2-carboxamido)-[1,1′-biphenyl]-3-yl)oxazolo[5,4-b]pyridin-6-yl)methyl)pyrrolidine-3-carboxylic acid trifluoroacetate] yielded an AUC ([1]; iv, i.v., 2 mg/kg) of 578 ng·h/mL, a half-life ([1]; iv, i.v., 2 mg/kg) of 2.42 h and a bioavailability ([1]; po) of 53%. The AUC ([1]; po, p.o. (i.g.), 10 mg/kg) was 1530 ng·h/mL and the Cmax ([1]; po, p.o. (i.g.), 10 mg/kg) was 365 ng/mL.

With `Cc1c(NC(=O)c2nc3c(n2C)CCNC3)cccc1-c1cncc(-c2nc3cc(CN4CC[C@@H](C(=O)O)C4)cc(Cl)c3o2)c1C` [Example 19, (R)-1-(((7-chloro-2-(4-methyl-5-(2-methyl-3-(1-methyl-4,5,6,7-tetrahydro-1H-imidazole)[4,5-c]pyridine-2-carboxamido)phenyl)pyridin-3-yl)benzo[d]oxazol-5-yl)methyl)pyrrolidine-3-carboxylic acid] the LD50 at 14 days [2] was > 1000 mg/kg, the “body weight and behavior compared with control group” value (ICR mice) was “no abnormal body weight or behavior” and the AUC ([1]; iv, i.v., 2 mg/kg) was 560 ng·h/mL. For the same compound, the half-life ([1]; iv, i.v., 2 mg/kg) was 2.21 h, the bioavailability ([1]; po) was 65% and the AUC ([1]; po, p.o. (i.g.), 10 mg/kg) was 1820 ng·h/mL. It also gave a Cmax ([1]; po, p.o. (i.g.), 10 mg/kg) of 407 ng/mL.

For `Cc1c(NC(=O)c2nc3c(n2C)CCN(C)C3)cncc1-c1cccc(-c2nc3cc(CN4CC[C@@H](C(=O)O)C4)cc(Cl)c3o2)c1C` [Example 21], the LD50 at 14 days [2] was > 1000 mg/kg and the “body weight and behavior compared with control group” value (ICR mice) was “no abnormal body weight or behavior”.

Compound `Cc1c(NC(=O)c2nc3c(s2)CN(C[C@H](C)O)CC3)cccc1-c1cccc(-c2nc3cc(CN4CC[C@@H](C(=O)O)C4)cnc3o2)c1C` [Example 22, (R)-1-((2-(3′-(5-((S)-2-hydroxypropyl)-4,5,6,7-tetrahydrothiazolo[5,4-c]pyridine-2-carboxamido)-2,2′-dimethyl-[1,1′-biphenyl]-3-yl)oxazolo[5,4-b]pyridin-6-yl)methyl)pyrrolidine-3-carboxylic acid] has an AUC ([1]; iv, i.v., 2 mg/kg) of 578 ng·h/mL, a half-life ([1]; iv, i.v., 2 mg/kg) of 1.46 h and a bioavailability ([1]; po) of 51%. The AUC ([1]; po, p.o. (i.g.), 10 mg/kg) was 1470 ng·h/mL and the Cmax ([1]; po, p.o. (i.g.), 10 mg/kg) was 488 ng/mL.

For `Cc1c(NC(=O)c2nc3c(n2C)CCN(C[C@H](C)O)C3)cncc1-c1cccc(NC(=O)c2nc3c(n2C)CCN(C(C)C)C3)c1Cl` [Example 24, (S)—N-(2-chloro-3-(5-(5-(2-hydroxypropyl)-1-methyl-4,5,6,7-tetrahydro-1H-imidazo[4,5-c]pyridine-2-carboxamido)-4-methylpyridin-3-yl)phenyl)-5-isopropyl-1-methyl-4,5,6,7-tetrahydro-1H-imidazo[4,5-c]pyridine-2-carboxamide], the LD50 at 14 days [2] was > 1000 mg/kg and the “body weight and behavior compared with control group” value (ICR mice) was “no abnormal body weight or behavior”.

In the case of `Cc1c(NC(=O)c2nc3c(s2)CN(C)CC3)cccc1-c1cncc(-c2nc3cc(CN4CC[C@@H](C(=O)O)C4)cc(C#N)c3o2)c1C` [Example 25], the AUC ([1]; iv, i.v., 2 mg/kg) is reported as 612 ng·h/mL, the half-life ([1]; iv, i.v., 2 mg/kg) is reported as 2.35 h and the bioavailability ([1]; po) is reported as 60%. The AUC ([1]; po, p.o. (i.g.), 10 mg/kg) was 1840 ng·h/mL and the Cmax ([1]; po, p.o. (i.g.), 10 mg/kg) was 435 ng/mL.

In the case of `Cc1c(NC(=O)c2nc3c(n2C)CCN(C[C@H](C)O)C3)cncc1-c1cccc(NC(=O)c2nc3c(n2C)CCN(C[C@H](C)O)C3)c1Cl` [Example 26, N-(5-(2-chloro-3-(5-((S)-2-hydroxypropyl)-1-methyl-4,5,6,7-tetrahydro-1H-imidazo[4,5-c]pyridine-2-carboxamido)phenyl)-4-methylpyridin-3-yl)-5-((S)-2-hydroxypropyl)-1-methyl-4,5,6,7-tetrahydro-1H-imidazo[4,5-c]pyridine-2-carboxamide], the LD50 at 14 days [2] is reported as > 1000 mg/kg and the “body weight and behavior compared with control group” value (ICR mice) is reported as “no abnormal body weight or behavior”.

In the case of `Cc1c(NC(=O)c2nc3c(n2C)CCN(CC(C)O)C3)cccc1-c1cccc(-c2nc3cc(CN4CC[C@@H](C(=O)O)C4)ncc3o2)c1C` (stereo partly drawn) [Example 29, (R)-1-((2-(3′-(5-(2-hydroxypropyl)-1-methyl-4,5,6,7-tetrahydro-1H-imidazo[4,5-c]pyridine-2-carboxamido)-2,2′-dimethyl-[1,1′-biphenyl]-3-yl)oxazolo[5,4-c]pyridin-6-yl)methyl)pyrrolidine-3-carboxylic acid], the AUC ([1]; iv, i.v., 2 mg/kg) is reported as 617 ng·h/mL, the half-life ([1]; iv, i.v., 2 mg/kg) is reported as 2.14 h and the bioavailability ([1]; po) is reported as 48%. It also gave an AUC ([1]; po, p.o. (i.g.), 10 mg/kg) of 1480 ng·h/mL and a Cmax ([1]; po, p.o. (i.g.), 10 mg/kg) of 405 ng/mL.
